From BindingDB's records for doi:10.7270/Q2M61HQ8 (Southern Research Specialized Biocontainment Screening …, 2010)

biological target: Large T antigen (Simian virus 40, UniProt P03070); assay: SV40 large T antigen inhibitors, biochemical (AID 1903)
Sequence (P03070 whole entry): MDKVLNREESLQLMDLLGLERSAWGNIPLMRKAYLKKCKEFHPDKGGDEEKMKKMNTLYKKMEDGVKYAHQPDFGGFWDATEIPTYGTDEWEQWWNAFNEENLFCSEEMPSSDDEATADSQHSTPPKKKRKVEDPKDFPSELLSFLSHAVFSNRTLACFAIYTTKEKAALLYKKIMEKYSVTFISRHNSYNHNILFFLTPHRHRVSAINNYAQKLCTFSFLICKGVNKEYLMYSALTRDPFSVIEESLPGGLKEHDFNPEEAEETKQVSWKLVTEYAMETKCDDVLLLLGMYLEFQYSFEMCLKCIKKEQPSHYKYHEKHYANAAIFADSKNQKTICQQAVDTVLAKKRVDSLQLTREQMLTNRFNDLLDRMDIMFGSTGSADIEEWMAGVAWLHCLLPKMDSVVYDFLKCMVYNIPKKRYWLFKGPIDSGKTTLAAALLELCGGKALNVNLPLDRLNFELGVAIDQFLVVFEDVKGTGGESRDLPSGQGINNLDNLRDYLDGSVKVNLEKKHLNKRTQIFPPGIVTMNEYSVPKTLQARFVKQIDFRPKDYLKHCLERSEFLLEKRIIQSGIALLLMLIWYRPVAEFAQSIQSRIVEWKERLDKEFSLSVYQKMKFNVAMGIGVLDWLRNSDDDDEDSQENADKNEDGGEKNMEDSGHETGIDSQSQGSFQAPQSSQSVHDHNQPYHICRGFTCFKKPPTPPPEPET

Row | Structure (SMILES) | IC50 [µM]
1 | CN(C)c1ccc(N=CCC(=O)c2ccccc2)cc1 [(E)-3-[4-(dimethylamino)anilino]-1-phenyl-2-propen-1-one] | 5.19
2 | COc1cc(-c2nc3c[nH]ccn-3c2=Nc2ccccc2)ccc1O [SMR000093145] | 5.05
3 | O=C1CCCC(=O)C1=CNc1ccc(O)cc1 [2-[(4-hydroxyanilino)methylidene]cyclohexane-1,3-dione] | 12.3
4 | CN(C)c1ccc(NC(=O)c2cccc(-n3c(O)ccc3O)c2)cc1 [N-[4-(dimethylamino)phenyl]-3-(2,5-dioxopyrrolidin-1-yl)benzamide] | 9.21
5 | N#CC1C(=N)C2=C(N3CCCCC3)CCCC2C1(C#N)C#N (stereo unspecified) [3-Amino-4-piperidin-1-yl-5,6,7,7a-tetrahydro-indene-1,1,2-tricarbonitrile] | 9.99
6 | Cc1ccc(Nc2oc3cc(=O)ccc-3cc2C(N)=O)cc1 [2-(4-methylanilino)-7-oxochromene-3-carboxamide] | 33.8
7 | O=C1CCCC2=Nc3[nH]c(=S)[nH]c(=O)c3C(c3ccc(Br)cc3)C12 (stereo unspecified) [5-(4-bromophenyl)-2-thioxo-2,3,5,8,9,10-hexahydropyrimido[4,5-b]quinoline-4,6(1H,7H)-dione] | 48.1
8 | Oc1ccc(-c2nc3c[nH]ccn-3c2=Nc2ccc3c(c2)OCCO3)cc1 [MLS000116162] | 4.14
9 | Cc1cc(-c2nc3c4c5c(sc4nc(=O)n3[nH]2)CCC5)c(C)o1 [MLS000048351] | 24.8
10 | CCN(CC)CCN1C(=O)C(=O)C(C(=O)c2ccc(C)cc2)C1c1cccnc1 (stereo unspecified) [(4E)-1-[2-(diethylamino)ethyl]-4-[hydroxy-(4-methylphenyl)methylidene]-5-(3-pyridinyl)pyrrolidine-2,3-dione] | 18.9
11 | CC1(C)CC(=O)C(=CNc2ccc(O)cc2)C(=O)C1 [SMR000024722] | 5.53
